According to article PMC4665511, “An Improved Neutral α-Glucosidase Assay for Assessment of Epididymal Function—Validation and Comparison to the WHO Method” (Diagnostics, 2014):

Test system: T1, Neutral α-glucosidase (NAG)
T1 construct: gene MGAM; native, unpurified enzyme in human seminal plasma
Assay: spectrophotometric PNP release at […] nm, Michaelis-Menten
Format: biochemical, Homo sapiens
Conditions: seminal plasma, not purified; average of semen samples (n = 13 in methods); adapted proprietary buffer with SDS, pH 6.8, 37 °C

Km: 4.6 ± 0.63 mM
Structure (SMILES): O=[N+]([O-])c1ccc(O[C@H]2O[C@H](CO)[C@@H](O)[C@H](O)[C@H]2O)cc1 [para-nitrophenyl-α-D-glucopyranoside]
